According to US20170008888A1 (KYORIN PHARMACEUTICAL CO., LTD., priority 2014, published 2017):

Assays:
Format in all cases: binding
[1] = target: T1, TAO2 (Homo sapiens, UniProt Q9UL54); test: Probe-based (AX9989) kinase profiling in Jurkat lysate: TAO2; conditions: read-out: Kinase inhibition % at indicated screening concentration: TAO2; for inhibition at 1 µM: screening concentration 1.0 μM
T1 construct: screened for activity against several kinases in Jurkat cells; endogenous in cells; host or cells: Jurkat cell lysate
T1 sequence (Q9UL54 1-1235): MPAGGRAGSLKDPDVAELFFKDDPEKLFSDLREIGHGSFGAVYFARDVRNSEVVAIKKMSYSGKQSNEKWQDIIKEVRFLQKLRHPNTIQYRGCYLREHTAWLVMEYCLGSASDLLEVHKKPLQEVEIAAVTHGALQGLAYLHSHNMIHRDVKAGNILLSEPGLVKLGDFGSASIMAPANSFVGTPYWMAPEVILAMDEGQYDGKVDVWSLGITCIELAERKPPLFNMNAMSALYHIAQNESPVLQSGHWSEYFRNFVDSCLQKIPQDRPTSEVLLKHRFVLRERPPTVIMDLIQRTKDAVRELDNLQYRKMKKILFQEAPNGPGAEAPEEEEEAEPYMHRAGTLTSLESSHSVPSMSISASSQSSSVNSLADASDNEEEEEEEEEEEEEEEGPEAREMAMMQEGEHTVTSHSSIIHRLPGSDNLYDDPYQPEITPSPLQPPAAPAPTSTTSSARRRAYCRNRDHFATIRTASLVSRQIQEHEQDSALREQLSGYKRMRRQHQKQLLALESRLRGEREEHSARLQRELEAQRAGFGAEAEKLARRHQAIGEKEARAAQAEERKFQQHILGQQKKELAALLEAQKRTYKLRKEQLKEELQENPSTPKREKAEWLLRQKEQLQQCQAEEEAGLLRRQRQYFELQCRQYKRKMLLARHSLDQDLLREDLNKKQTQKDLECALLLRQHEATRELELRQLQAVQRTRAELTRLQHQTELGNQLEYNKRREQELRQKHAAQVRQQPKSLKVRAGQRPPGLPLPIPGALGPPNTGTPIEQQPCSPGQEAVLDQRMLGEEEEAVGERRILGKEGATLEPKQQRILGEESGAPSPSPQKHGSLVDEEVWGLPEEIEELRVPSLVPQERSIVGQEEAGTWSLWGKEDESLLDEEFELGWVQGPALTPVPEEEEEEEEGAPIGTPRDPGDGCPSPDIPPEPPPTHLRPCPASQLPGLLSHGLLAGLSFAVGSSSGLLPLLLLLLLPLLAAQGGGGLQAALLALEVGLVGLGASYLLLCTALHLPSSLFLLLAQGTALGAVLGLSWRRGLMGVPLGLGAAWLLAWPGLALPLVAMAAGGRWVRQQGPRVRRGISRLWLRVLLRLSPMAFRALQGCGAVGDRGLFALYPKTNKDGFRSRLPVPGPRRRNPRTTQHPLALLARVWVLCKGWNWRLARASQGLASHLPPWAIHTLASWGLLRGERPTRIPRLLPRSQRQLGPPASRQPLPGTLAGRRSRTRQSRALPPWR
Summary of the method: (§1)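 Percent inhibition was derived from reduced LC/MS fragment intensities of probe-labeled peptides relative to compound-free controls. Before labeling with 5 μM AX9989, Mn2+-supplemented (20 mM) Jurkat lysate was exposed to compound for 15 min at room temperature.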

[2] = tested on: AurB or AurC; test: Probe-based (AX9989) kinase profiling in Jurkat lysate: AurB or AurC
Summary of the method: as §1

[3] = target: T2, BRD4 bromodomain domain I [BRD4(1)] (Homo sapiens, UniProt O60885); test: BRD4 bromodomain domain 1 inhibition assay (TR-FRET); conditions: screening concentration 10 μM
T2 construct: BRD4 bromodomain domain I [BRD4(1)]; purchased Cayman Chemicals
Method: The inhibitory activity of test compounds on the bromodomain, BRD4 bromodomain domain I [BRD4(1)], were determined via TR-FRET after a slight modification of the manufacturer's protocol (Cayman Chemicals, Ann Arbor, Mich.). Briefly, compounds were diluted to a 20× ([…]) concentration in DMSO. 100 nL of 20× compounds were then dry stamped into triplicate wells of black, low volume 384 well plates (Aurora Biotechnologies, Carlsbad, Calif.) using the Mosquito liquid handler (TPP Labtech, Melbourn, UK). 20× compounds were then diluted to a 4× (40 μM) concentration in Assay Buffer to result in 2% DMSO content. […] JQ1 at 10 μM or 0.5% DMSO final concentrations were used as the positive and negative controls, respectively, to set the assay window. The fluorescence was read in a time-resolved format on the Biotec Synergy 2 plate reader by exciting the signal at 340 nm and reading emissions at 620 and 670, using a 100 μs delay and 200 μs read window. […] Briefly, TR-FRET ratio values were normalized to the average TR-FRET ratio value given by 10 μM JQ1. […]

[4] = tested on: AMPKa1 or AMPKa2; test: Probe-based (AX9989) kinase profiling in Jurkat lysate: AMPKa1 or AMPKa2
Summary of the method: as §1

[5] = target: T3, AurA (Homo sapiens, UniProt O14965); test: Probe-based (AX9989) kinase profiling in Jurkat lysate: AurA; conditions: read-out: Kinase inhibition % at indicated screening concentration: AurA; for inhibition at 1 µM: screening concentration 1.0 μM
T3 construct: screened for activity against several kinases in Jurkat cells; endogenous in cells; host or cells: Jurkat cell lysate
T3 sequence (O14965 1-403): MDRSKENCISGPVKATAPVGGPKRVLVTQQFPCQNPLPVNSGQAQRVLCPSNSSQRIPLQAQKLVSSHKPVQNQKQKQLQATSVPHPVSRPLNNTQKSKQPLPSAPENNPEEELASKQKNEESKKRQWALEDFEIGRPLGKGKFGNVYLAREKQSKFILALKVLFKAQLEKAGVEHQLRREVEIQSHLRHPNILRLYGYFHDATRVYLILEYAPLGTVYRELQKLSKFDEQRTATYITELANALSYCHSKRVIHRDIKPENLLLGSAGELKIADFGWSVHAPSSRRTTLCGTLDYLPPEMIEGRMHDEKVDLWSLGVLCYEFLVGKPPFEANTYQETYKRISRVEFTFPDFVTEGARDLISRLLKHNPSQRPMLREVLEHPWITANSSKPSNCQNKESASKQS
Summary of the method: as §1

[6] = tested on: ABL or ARG; test: Probe-based (AX9989) kinase profiling in Jurkat lysate: ABL or ARG
Summary of the method: as §1

[7] = target: T4, ACK (Homo sapiens, UniProt Q07912); test: Probe-based (AX9989) kinase profiling in Jurkat lysate: ACK; conditions: read-out: Kinase inhibition % at indicated screening concentration: ACK; for inhibition at 1 µM: screening concentration 1.0 μM
T4 construct: screened for activity against several kinases in Jurkat cells; endogenous in cells; host or cells: Jurkat cell lysate
T4 sequence (Q07912 whole entry): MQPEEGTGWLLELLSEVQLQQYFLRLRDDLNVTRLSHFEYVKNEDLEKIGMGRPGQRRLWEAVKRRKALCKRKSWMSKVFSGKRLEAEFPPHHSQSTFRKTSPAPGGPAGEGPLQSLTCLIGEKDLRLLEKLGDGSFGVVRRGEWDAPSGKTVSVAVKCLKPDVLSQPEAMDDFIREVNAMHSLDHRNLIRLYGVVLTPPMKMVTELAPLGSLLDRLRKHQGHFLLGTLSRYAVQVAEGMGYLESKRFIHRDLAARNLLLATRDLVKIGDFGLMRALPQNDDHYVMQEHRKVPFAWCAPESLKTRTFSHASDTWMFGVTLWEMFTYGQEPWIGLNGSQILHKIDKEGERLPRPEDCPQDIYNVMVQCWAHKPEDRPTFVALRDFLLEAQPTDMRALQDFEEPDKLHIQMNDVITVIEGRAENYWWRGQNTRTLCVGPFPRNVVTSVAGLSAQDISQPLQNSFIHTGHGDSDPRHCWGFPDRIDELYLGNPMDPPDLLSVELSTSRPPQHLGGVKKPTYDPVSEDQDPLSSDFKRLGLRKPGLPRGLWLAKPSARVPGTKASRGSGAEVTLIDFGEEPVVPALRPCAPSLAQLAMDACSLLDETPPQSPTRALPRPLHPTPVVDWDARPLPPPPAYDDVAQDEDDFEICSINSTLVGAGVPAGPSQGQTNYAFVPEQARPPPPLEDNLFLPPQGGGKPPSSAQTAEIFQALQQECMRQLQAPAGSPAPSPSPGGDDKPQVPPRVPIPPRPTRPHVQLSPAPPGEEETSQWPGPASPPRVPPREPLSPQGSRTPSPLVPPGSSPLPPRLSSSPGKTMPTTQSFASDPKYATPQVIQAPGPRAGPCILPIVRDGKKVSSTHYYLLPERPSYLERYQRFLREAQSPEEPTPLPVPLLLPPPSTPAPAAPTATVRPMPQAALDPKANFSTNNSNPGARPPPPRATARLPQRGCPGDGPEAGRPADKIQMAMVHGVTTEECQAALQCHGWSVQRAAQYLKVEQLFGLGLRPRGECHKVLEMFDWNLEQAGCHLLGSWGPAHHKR
Summary of the method: as §1

[8] = target: T5, JAK1 (Homo sapiens, UniProt P23458); test: Probe-based (AX9989) kinase profiling in Jurkat lysate: JAK1; conditions: read-out: Kinase inhibition % at indicated screening concentration: JAK1; for inhibition at 1 µM: screening concentration 1.0 μM
T5 construct: screened for activity against several kinases in Jurkat cells; endogenous in cells; host or cells: Jurkat cell lysate
T5 sequence (P23458 whole entry): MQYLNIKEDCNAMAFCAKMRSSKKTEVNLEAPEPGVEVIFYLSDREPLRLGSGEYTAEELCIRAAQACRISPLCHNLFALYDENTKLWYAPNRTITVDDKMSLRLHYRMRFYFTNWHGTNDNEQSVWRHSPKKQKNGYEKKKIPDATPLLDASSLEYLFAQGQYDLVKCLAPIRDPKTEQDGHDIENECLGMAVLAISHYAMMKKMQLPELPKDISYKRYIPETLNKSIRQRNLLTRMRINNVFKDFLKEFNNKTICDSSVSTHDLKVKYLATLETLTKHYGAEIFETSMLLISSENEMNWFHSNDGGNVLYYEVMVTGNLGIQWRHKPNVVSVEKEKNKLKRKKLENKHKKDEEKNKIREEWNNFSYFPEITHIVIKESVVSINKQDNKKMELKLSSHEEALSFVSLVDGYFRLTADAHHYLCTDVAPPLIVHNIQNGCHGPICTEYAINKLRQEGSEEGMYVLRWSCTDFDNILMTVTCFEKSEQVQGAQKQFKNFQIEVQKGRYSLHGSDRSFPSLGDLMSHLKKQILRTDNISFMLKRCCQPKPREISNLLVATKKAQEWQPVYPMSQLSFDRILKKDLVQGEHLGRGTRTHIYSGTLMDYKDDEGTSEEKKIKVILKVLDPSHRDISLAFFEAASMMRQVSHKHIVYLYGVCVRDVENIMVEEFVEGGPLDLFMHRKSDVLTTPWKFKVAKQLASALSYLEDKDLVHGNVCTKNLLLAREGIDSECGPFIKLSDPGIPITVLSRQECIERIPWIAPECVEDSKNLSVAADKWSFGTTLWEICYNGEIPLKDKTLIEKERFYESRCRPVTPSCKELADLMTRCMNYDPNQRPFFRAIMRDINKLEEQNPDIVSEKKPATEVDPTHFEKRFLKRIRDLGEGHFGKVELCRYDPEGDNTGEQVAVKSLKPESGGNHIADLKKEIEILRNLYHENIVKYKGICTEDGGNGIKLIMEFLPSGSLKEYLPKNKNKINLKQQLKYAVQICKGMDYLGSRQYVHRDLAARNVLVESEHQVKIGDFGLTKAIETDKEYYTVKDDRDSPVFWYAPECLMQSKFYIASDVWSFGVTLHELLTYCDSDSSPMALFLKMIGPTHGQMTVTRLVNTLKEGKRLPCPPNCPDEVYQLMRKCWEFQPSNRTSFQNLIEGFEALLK
Summary of the method: as §1

[9] = target: T6, ERK5 (Homo sapiens, UniProt Q13164); test: Probe-based (AX9989 acyl phosphate ATP probe) kinase profiling in Jurkat lysate: ERK5; conditions: for IC50: calculated from percent inhibition of AX9989 labeling and the screening concentration, Jurkat lysate; for inhibition at 1 µM: screening concentration 1.0 μM
T6 construct: screened for activity against several kinases in Jurkat cells; endogenous in cells; host or cells: Jurkat cell lysate
T6 sequence (Q13164 whole entry): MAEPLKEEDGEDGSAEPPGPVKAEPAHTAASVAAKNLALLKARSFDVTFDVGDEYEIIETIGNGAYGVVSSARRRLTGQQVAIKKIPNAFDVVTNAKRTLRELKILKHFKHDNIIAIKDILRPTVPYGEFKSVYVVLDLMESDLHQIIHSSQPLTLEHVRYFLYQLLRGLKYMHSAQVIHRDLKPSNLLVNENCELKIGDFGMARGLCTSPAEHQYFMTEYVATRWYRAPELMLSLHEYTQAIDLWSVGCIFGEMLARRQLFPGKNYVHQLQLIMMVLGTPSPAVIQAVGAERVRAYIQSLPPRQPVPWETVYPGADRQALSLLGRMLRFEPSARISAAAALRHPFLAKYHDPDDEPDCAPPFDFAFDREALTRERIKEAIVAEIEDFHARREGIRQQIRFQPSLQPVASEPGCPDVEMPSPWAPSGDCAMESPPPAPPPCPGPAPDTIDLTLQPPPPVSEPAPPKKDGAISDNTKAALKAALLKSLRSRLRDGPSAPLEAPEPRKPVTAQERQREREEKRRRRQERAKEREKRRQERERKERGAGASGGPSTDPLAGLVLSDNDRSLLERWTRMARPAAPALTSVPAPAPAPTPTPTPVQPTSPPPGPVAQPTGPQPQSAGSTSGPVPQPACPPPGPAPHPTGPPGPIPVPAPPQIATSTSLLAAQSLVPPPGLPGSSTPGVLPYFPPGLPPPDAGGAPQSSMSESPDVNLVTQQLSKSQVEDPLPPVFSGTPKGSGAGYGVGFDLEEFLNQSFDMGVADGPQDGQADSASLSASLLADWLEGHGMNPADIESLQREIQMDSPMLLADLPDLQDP
Summary of the method: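 ERK5 IC50 values came from percent inhibition at the screening concentration, measured as loss of LC/MS signal of probe-labelled active-site peptides. Compound was added for 15 min at room temperature to Jurkat lysate (5 mg/ml, 20 mM MnCl2) before labelling with AX9989 ATP acyl phosphate probe at 5 μM.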

[10] = read-out: Kinase inhibition % at indicated screening concentration: ERK5

| SMILES | inhibition at 1 µM [1] | Kinase inhibition % at indicated screening concentration: AurB or AurC ([2]; screening concentration 1.0 μM) | inhibition at 10 µM [3] | Kinase inhibition % at indicated screening concentration: AMPKa1 or AMPKa2 ([4]; screening concentration 1.0 μM) | inhibition at 1 µM [5] | Kinase inhibition % at indicated screening concentration: ABL or ARG ([6]; screening concentration 1.0 μM) | inhibition at 1 µM [7] | inhibition at 1 µM [8] | IC50 [9] | inhibition at 1 µM [9, 10] | inhibition at 0.1 µM ([1]; screening concentration 0.1 μM) | Kinase inhibition % at indicated screening concentration: AurB or AurC ([2]; screening concentration 0.1 μM) | Kinase inhibition % at indicated screening concentration: AMPKa1 or AMPKa2 ([4]; screening concentration 0.1 μM) | inhibition at 0.1 µM ([5]; screening concentration 0.1 μM) | Kinase inhibition % at indicated screening concentration: ABL or ARG ([6]; screening concentration 0.1 μM) | inhibition at 0.1 µM ([7]; screening concentration 0.1 μM) | inhibition at 0.1 µM ([8]; screening concentration 0.1 μM) | inhibition at 0.1 µM ([9]; screening concentration 0.1 μM, read-out: Kinase inhibition % at indicated screening concentration: ERK5) |
| --- | --- | --- | --- | --- | --- | --- | --- | --- | --- | --- | --- | --- | --- | --- | --- | --- | --- | --- |
| CCOc1cc(C(=O)NC(CO)CO)ccc1Nc1cc2c(cn1)N(C)C(=O)c1ccccc1N2C [Compound 48] | ≤ 35% | E (E is ≦35%) | < 70% | E (E is ≦35%) | ≤ 35% | E (E is ≦35%) | ≤ 35% | ≤ 35% | 101 to 500 nM | 50 to 75% |  |  |  |  |  |  |  |  |
| CN1C(=O)c2ccccc2N(C)c2cc(N[C@H]3CC[C@H](Nc4ncccn4)CC3)ncc21 [Compound 47] | ≤ 35% | E (E is ≦35%) | < 70% | E (E is ≦35%) | ≤ 35% | E (E is ≦35%) | ≤ 35% | ≤ 35% | > 500 nM | 35 to 50% |  |  |  |  |  |  |  |  |
| CCOc1cc(C(=O)N2CCC(NC3CC3)C2)ccc1Nc1cc2c(cn1)N(C)C(=O)c1ccccc1N2C (centres unmarked) [Compound 20] |  |  | 70 to 85% |  |  |  |  |  | ≤ 50 nM |  | ≤ 35% | E (E is ≦35%) | E (E is ≦35%) | ≤ 35% | E (E is ≦35%) | ≤ 35% | ≤ 35% | 75 to 90% |

Further lines, results first:

| inhibition at 1 µM [1] | Kinase inhibition % at indicated screening concentration: AurB or AurC ([2]; screening concentration 1.0 μM) | inhibition at 10 µM [3] | Kinase inhibition % at indicated screening concentration: AMPKa1 or AMPKa2 ([4]; screening concentration 1.0 μM) | inhibition at 1 µM [5] | Kinase inhibition % at indicated screening concentration: ABL or ARG ([6]; screening concentration 1.0 μM) | inhibition at 1 µM [7] | inhibition at 1 µM [8] | IC50 [9] | inhibition at 1 µM [9, 10] | inhibition at 0.1 µM ([1]; screening concentration 0.1 μM) | Kinase inhibition % at indicated screening concentration: AurB or AurC ([2]; screening concentration 0.1 μM) | Kinase inhibition % at indicated screening concentration: AMPKa1 or AMPKa2 ([4]; screening concentration 0.1 μM) | inhibition at 0.1 µM ([5]; screening concentration 0.1 μM) | Kinase inhibition % at indicated screening concentration: ABL or ARG ([6]; screening concentration 0.1 μM) | inhibition at 0.1 µM ([7]; screening concentration 0.1 μM) | inhibition at 0.1 µM ([8]; screening concentration 0.1 μM) | inhibition at 0.1 µM ([9]; screening concentration 0.1 μM, read-out: Kinase inhibition % at indicated screening concentration: ERK5) | SMILES |
| --- | --- | --- | --- | --- | --- | --- | --- | --- | --- | --- | --- | --- | --- | --- | --- | --- | --- | --- |
| ≤ 35% | E (E is ≦35%) | 70 to 85% | E (E is ≦35%) | ≤ 35% | E (E is ≦35%) | ≤ 35% | ≤ 35% | > 500 nM | 50 to 75% |  |  |  |  |  |  |  |  | COc1c(Nc2cc3c(cn2)N(C)C(=O)c2ccccc2N3C)cccc1C(=O)N1CCNCC1 [Compound 78] |
| ≤ 35% | E (E is ≦35%) | < 70% | E (E is ≦35%) | ≤ 35% | E (E is ≦35%) | ≤ 35% | ≤ 35% | > 500 nM | 50 to 75% |  |  |  |  |  |  |  |  | CC(=O)NC1CCC(Nc2cc3c(cn2)N(C)C(=O)c2ccccc2N3C)CC1 (centres unmarked) [Compound 98] |
